Test results from US20230265151A1, “GIP/GLP1 CO-AGONIST COMPOUNDS” (priority 2020, published 2023).
Where two headings read alike, the source gives them in different places.

Experiments:
Type in all cases: cell-based
[1] = molecular target: hGLP-1R (Homo sapiens, UniProt P43220); experiment: Functional cAMP formation (HTRF) in HEK-293 clonal cells expressing hGLP-1R, 0.1% bovine casein, without or with 1.0% human serum albumin; set-up: expressed in transfected cells; conditions: 37° C.; for Emax: read-out: hGLP-1R Emax, % ± SEM
Chain of hGLP-1R (P43220 24-463): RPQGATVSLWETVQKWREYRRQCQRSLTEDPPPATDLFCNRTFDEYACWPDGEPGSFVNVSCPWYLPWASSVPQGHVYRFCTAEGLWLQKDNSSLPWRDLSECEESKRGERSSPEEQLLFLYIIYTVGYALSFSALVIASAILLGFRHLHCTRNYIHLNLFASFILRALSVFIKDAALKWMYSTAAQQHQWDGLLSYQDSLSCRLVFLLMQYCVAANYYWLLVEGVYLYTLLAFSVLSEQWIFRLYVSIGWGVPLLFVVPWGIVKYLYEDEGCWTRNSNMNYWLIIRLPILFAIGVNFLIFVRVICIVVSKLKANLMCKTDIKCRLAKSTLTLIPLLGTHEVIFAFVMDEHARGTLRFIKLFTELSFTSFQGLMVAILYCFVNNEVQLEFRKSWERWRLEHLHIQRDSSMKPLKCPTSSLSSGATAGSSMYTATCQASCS
Summary of the method: (§1)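 Cells were stimulated with peptide for 30 min at 37° C, then intracellular cAMP was measured by competitive HTRF (665/620 nm ratio) and converted to nM using a cAMP standard curve. Relative EC50 and Emax came from four-parameter logistic fits of percent maximal response against peptide concentration.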

[2] = molecular target: T1, hGCGR (Homo sapiens, UniProt P47871); experiment: Functional cAMP formation (HTRF) in HEK-293 clonal cells expressing hGCGR, 0.1% bovine casein, without or with 1.0% human serum albumin; conditions: read-out: hGCGR EC50, nM (SEM, n)
T1 construct: expressed in transfected cells
T1 sequence (P47871 26-477): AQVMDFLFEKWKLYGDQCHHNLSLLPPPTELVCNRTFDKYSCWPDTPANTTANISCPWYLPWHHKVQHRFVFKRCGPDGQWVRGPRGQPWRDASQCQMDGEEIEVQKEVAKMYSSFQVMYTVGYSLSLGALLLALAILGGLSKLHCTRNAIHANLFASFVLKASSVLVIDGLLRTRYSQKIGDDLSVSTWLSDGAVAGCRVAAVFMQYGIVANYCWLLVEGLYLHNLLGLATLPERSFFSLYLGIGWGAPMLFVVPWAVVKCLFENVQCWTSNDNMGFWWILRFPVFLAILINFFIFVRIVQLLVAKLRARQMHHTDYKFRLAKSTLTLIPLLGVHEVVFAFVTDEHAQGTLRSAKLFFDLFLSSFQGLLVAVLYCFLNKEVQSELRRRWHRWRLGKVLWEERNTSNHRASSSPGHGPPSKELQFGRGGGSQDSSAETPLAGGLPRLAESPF
Summary of the method: as §1

[3] = molecular target: T2, hGIPR (Homo sapiens, UniProt P48546); experiment: Functional cAMP formation (HTRF) in HEK-293 clonal cells expressing hGIPR, 0.1% bovine casein, without or with 1.0% human serum albumin; conditions: for Emax: percent of maximal response to GIP(1-42)NH2, read-out: hGIPR Emax, % ± SEM; for EC50: cAMP, 0.1% bovine casein (no human serum albumin), geometric mean, read-out: hGIPR EC50, nM (SEM, n)
T2 construct: expressed in transfected cells
T2 sequence (P48546 22-466): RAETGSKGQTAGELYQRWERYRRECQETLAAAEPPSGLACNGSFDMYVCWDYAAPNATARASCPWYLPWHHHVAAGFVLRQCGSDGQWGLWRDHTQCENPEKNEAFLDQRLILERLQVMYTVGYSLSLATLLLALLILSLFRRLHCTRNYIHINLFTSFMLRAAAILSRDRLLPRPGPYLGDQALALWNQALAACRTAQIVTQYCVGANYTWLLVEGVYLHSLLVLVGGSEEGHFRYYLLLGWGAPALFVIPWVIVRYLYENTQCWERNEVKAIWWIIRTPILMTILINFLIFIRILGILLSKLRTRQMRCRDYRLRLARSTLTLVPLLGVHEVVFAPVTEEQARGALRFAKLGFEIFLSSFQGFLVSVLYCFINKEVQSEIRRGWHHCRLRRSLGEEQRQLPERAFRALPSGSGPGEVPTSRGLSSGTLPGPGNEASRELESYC
Summary of the method: as §1

| Compound | Emax ([1]; HEK293, 0.1% bovine casein and 1.0% human serum albumin, percent of maximal response to GLP-1(7-36)NH2) [%] | Emax ([1]; HEK293, percent of maximal response to GLP-1(7-36)NH2, 0.1% bovine casein, arithmetic mean) [%] | EC50 ([2]; 0.1% bovine casein and 1.0% human serum albumin, 37° C., geometric mean) [nM] | EC50 ([2]; cAMP, incubated at 37° C., 0.1% bovine casein (no human serum albumin), geometric mean) [nM] | Emax ([3]; HEK293, 0.1% bovine casein and 1.0% human serum albumin, 37° C.) [%] | EC50 ([3]; incubated at 37° C.) [nM] | Emax ([1]; HEK293, cAMP, 0.1% bovine casein, percent of maximal response to GLP-1(7-36)NH2, arithmetic mean) [%] | EC50 ([1]; cAMP, 0.1% bovine casein (no human serum albumin), geometric mean, read-out: hGLP-1R EC50, nM (SEM, n)) [nM] | EC50 ([2]; cAMP, 37° C., 0.1% bovine casein (no human serum albumin), geometric mean) [nM] | EC50 ([2]; cAMP, 37° C., 0.1% bovine casein and 1.0% human serum albumin, geometric mean (SEM, n)) [nM] | Emax ([3]; HEK293, cAMP, 37° C., 0.1% bovine casein and 1.0% human serum albumin) [%] | EC50 ([3]; 37° C.) [nM] |
| --- | --- | --- | --- | --- | --- | --- | --- | --- | --- | --- | --- | --- |
| CC[C@H](C)[C@H](NC(=O)[C@H](CC(C)C)NC(=O)[C@](C)(Cc1ccc(O)cc1)NC(=O)[C@@H](CCC(=O)O)NC(=O)[C@@H](NC(=O)[C@H](Cc1ccccc1)NC(=O)[C@H](CCC(=O)O)NC(=O)C(C)(C)NC(=O)[C@H](CCC(N)=O)NC(=O)[C@H](C)NC(=O)[C@H](CCCCNC(=O)COCCOCCNC(=O)COCCOCCNC(=O)CC[C@H](NC(=O)CCCCCCCCCCCCC(=O)O)C(=O)O)NC(=O)[C@H](CCCN)NC(=O)[C@H](CC(=O)O)NC(=O)[C@H](CC(C)C)NC(=O)[C@](C)(CC(C)C)NC(=O)[C@@H](NC(=O)[C@H](CO)NC(=O)[C@](C)(CC(C)C)NC(=O)[C@H](CC(=O)O)NC(=O)[C@H](CO)NC(=O)[C@@H](NC(=O)[C@](C)(Cc1ccccc1F)NC(=O)[C@@H](NC(=O)CNC(=O)[C@H](CCC(=O)O)NC(=O)C(C)(C)NC(=O)[C@@H](N)Cc1ccc(O)cc1)[C@@H](C)O)[C@@H](C)O)[C@@H](C)CC)[C@@H](C)CC)C(=O)N[C@@H](CCC(=O)O)C(=O)NCC(=O)NCC(=O)N[C@@H](CCCCNC(=O)COCCOCCNC(=O)COCCOCCNC(=O)CC[C@H](NC(=O)CCCCCCCCCCCCC(=O)O)C(=O)O)C(=O)N[C@@H](CO)C(=O)N[C@@H](CO)C(=O)NCC(=O)N[C@@H](C)C(=O)N1CCC[C@H]1C(=O)N1CCC[C@H]1C(=O)N1CCC[C@H]1C(=O)N[C@@H](CO)C(N)=O [Example 51] | 92.9 | 85.7 ± 9.8 | > 9950 | > 9950 | 90.7 | 0.11 |  |  |  |  |  |  |
| CC[C@H](C)[C@H](NC(=O)[C@H](CC(C)C)NC(=O)[C@](C)(Cc1ccc(O)cc1)NC(=O)[C@H](CCCCNC(=O)COCCOCCNC(=O)COCCOCCNC(=O)CC[C@H](NC(=O)CCCCCCCCCCCCCCC(=O)O)C(=O)O)NC(=O)[C@@H](NC(=O)[C@H](Cc1ccccc1)NC(=O)[C@H](CCCN)NC(=O)C(C)(C)NC(=O)[C@H](CCC(N)=O)NC(=O)[C@H](C)NC(=O)[C@H](CCC(N)=O)NC(=O)[C@H](CCCN)NC(=O)[C@H](CC(=O)O)NC(=O)[C@H](CC(C)C)NC(=O)[C@](C)(CC(C)C)NC(=O)[C@@H](NC(=O)C(C)(C)NC(=O)[C@H](Cc1ccncc1)NC(=O)[C@H](CC(=O)O)NC(=O)[C@H](CO)NC(=O)[C@@H](NC(=O)[C@](C)(Cc1ccccc1F)NC(=O)[C@@H](NC(=O)CNC(=O)[C@H](CCC(=O)O)NC(=O)C(C)(C)NC(=O)[C@@H](N)Cc1ccc(O)cc1)[C@@H](C)O)[C@@H](C)O)[C@@H](C)CC)[C@@H](C)CC)C(=O)N[C@@H](CCCCNC(=O)COCCOCCNC(=O)COCCOCCNC(=O)CC[C@H](NC(=O)CCCCCCCCCCCCCCC(=O)O)C(=O)O)C(=O)NCC(=O)NCC(=O)N1CCC[C@H]1C(=O)N[C@@H](CO)C(=O)N[C@@H](CO)C(=O)NCC(=O)N[C@@H](C)C(=O)N1CCC[C@H]1C(=O)N1CCC[C@H]1C(=O)N1CCC[C@H]1C(=O)N[C@@H](CO)C(N)=O [Example 443] |  |  |  |  |  |  | 114 | 0.294 | > 9950 | > 9950 | 91.1 | 0.0178 |
